In ChEMBL document CHEMBL1122227, “Synthesis and antiarrhythmic and parasympatholytic properties of substituted phenols. 1. Heteroarylamine derivatives” (1983) one finds inhibition, DOSE and Dose data, which are given here for 25 molecules.

Assay [1] concerns the target Muscarinic acetylcholine receptor (Rattus norvegicus) (UniProt P08482+P08483+P08485+P08911+P10980). Description: Percentage inhibition of field stimulated contraction guinea pig ileum (parasympatholytic activity)in presence of test compound (4 mg/L). The assay is classed as functional, tissue-based. The conditions noted are these: Cavia porcellus, target entry is the homologue from another species.

Assay [2] relates to Canis familiaris. Briefly: Active dose for antiarrhythmic activity in Harris dog. (incomplete or no effect to restore sinus rhythm up to 30 mg/kg); low activity. The format is functional, organism-based. The arrangement: dose 30 mg/kg. Particulars: Canis lupus familiaris; Heart.
The species named for assay [3] is Canis familiaris. Description: Active dose for antiarrhythmic activity in Harris dog. The assay is classed as functional, Canis lupus familiaris, Heart.
Assay [4] concerns Canis familiaris. Description: Active dose for antiarrhythmic activity in Harris dog; inactive to 30 mg/kg. The assay is classed as functional, organism-based. Also on record: dose 30 mg/kg. The conditions noted are these: Canis lupus familiaris; Heart.
Assay [5] has as its system Canis familiaris. Briefly: Active dose for antiarrhythmic activity in Harris dog. (incomplete restoration of normal sinus rhythm up to 2 mg/kg when death occurred); low activity. The assay is classed as functional, organism-based. The arrangement: dose 2 mg/kg. Particulars: Canis lupus familiaris; Heart.
In assay [6] the test system is Canis familiaris. Briefly: Active dose for antiarrhythmic activity in Harris dog.(partial restoration of normal sinus rhythm up to 12 mg/kg when loss of muscle tone occurred); low activity. The assay is classed as functional, organism-based. Also on record: dose 12 mg/kg. Particulars: Canis lupus familiaris.
Assay [7] concerns Canis familiaris. Briefly: Active dose for antiarrhythmic activity in Harris dog; inactive to 22 mg/kg. The conditions noted are these: Canis lupus familiaris; Heart. The arrangement: dose 22 mg/kg. The format is functional, organism-based.
Assay [8] deals with Canis familiaris. Description: Active dose for antiarrhythmic activity in Harris dog.(partial restoration of normal sinus rhythm up to 9 mg/kg when death occurred); low activity. The assay is classed as functional, organism-based. Also on record: dose 9 mg/kg. Particulars: Canis lupus familiaris; Heart.

The inhibition is the relative decrease from the control value, in per cent.

Structures are written as SMILES. The source made the active and inactive calls. No cut-off for these calls is given here.

On to `COc1cc2c(Nc3cc(CN4CCCC4)c(O)c(CN4CCCC4)c3)ncnc2c(OC)c1OC`, for which the inhibition in assay [1] stood at 14%. Besides, in the assay with Canis familiaris [2], the DOSE result is “Partially active”.

Turning to `Oc1c(CN2CCCC2)cc(Nc2ncnc3ccccc23)cc1CN1CCCC1` [CHANGROLIN], in assay [1], the inhibition was 43%. Besides, in the assay filed under Canis familiaris [3], the Dose was 10.3 mg/kg.

With `Oc1ccccc1Nc1ncnc2ccccc12`, in assay [1], the inhibition was found to be 48%. Moreover, in the assay on Canis familiaris [4], the DOSE result was “inactive”.

With `Oc1c(CN2CCCC2)cc(Nc2nnc(Cl)c3ccccc23)cc1CN1CCCC1`, the inhibition in assay [1] came out at 76%. Besides, in the assay listed under Canis familiaris [3], the Dose stood at 2.5 mg/kg.

For the molecule `Oc1c(CN2CCCC2)cc(CNc2nnc(Cl)c3ccccc23)cc1CN1CCCC1`, the inhibition in assay [1] turned out to be 78%. This molecule displayed a Dose in the assay filed under Canis familiaris [3] of 4.5 mg/kg.

On to `COc1nnc(Nc2cc(CN3CCCC3)c(O)c(CN3CCCC3)c2)c2ccccc12`, for which the inhibition in assay [1] came out at 84%. Further, in the assay on Canis familiaris [5], the DOSE result was “Partially active”.

As for `Oc1c(CN2CCCC2)cc(Nc2ccnc3cc(C(F)(F)F)ccc23)cc1CN1CCCC1`, in assay [1], the inhibition came out at 36%. Moreover, the Dose in the assay filed under Canis familiaris [3] turned out to be 3 mg/kg.

With `Oc1ccc(Nc2ccc3ccccc3n2)cc1CN1CCCC1`, the inhibition in assay [1] is 72%. In the assay filed under Canis familiaris [3], the Dose was 11 mg/kg.

Regarding `Nc1cc(CN2CCCC2)c(O)c(CN2CCCC2)c1`, in assay [1], the inhibition amounted to 3%. For the same molecule, the DOSE result in the assay on Canis familiaris [4] was “inactive”.

For `Oc1c(CN2CCCC2)cc(Nc2ncccn2)cc1CN1CCCC1`, in assay [1], the inhibition amounted to 6%. Further, the DOSE entry in the assay on Canis familiaris [6] was “Partially active”.

On to `Clc1nnc(Nc2cc(CN3CCCC3)cc(CN3CCCC3)c2)c2ccccc12`, for which the inhibition in assay [1] was 93%. For the same molecule, the Dose in the assay listed under Canis familiaris [3] turned out to be 3 mg/kg.

Take `Oc1c(CN2CCCC2)cc(Nc2ccncc2)cc1CN1CCCC1`: in assay [1], the inhibition is 5%. This molecule also returned a Dose in the assay filed under Canis familiaris [3] of 8.5 mg/kg.

Regarding `Oc1c(CN2CCCC2)cc(Nc2ccc(Cl)nn2)cc1CN1CCCC1`, the inhibition in assay [1] was determined as 40%. Also, the Dose in the assay filed under Canis familiaris [3] turned out to be 10.5 mg/kg.

With `Oc1c(CN2CCCC2)cc(Nc2nncc3ccccc23)cc1CN1CCCC1`, the inhibition in assay [1] turned out to be 83%. Also, in the assay listed under Canis familiaris [3], the Dose was 1.5 mg/kg.

As to `Oc1ccc(Nc2ncnc3ccccc23)cc1`, in assay [1], the inhibition worked out at 13%. For the same molecule, in the assay with Canis familiaris [4], the DOSE entry was “inactive”.

As to `Oc1ccc(Nc2nnc(Cl)c3ccccc23)cc1CN1CCCC1`, in assay [1], the inhibition is 65%. For the same molecule, the Dose in the assay filed under Canis familiaris [3] stood at 17 mg/kg.

Regarding `Oc1c(CN2CCCC2)ccc(Nc2ncnc3ccccc23)c1CN1CCCC1`, in assay [1], the inhibition stood at 21%. The DOSE entry with Canis familiaris [7] was “inactive”.

Regarding `Cc1cc(Nc2cc(CN3CCCC3)c(O)c(CN3CCCC3)c2)c2ccccc2n1`, the Dose in the assay listed under Canis familiaris [3] came out at 11 mg/kg.

Regarding `CC(=O)Nc1cc(CN2CCCC2)c(O)c(CN2CCCC2)c1`, the DOSE result with Canis familiaris [4] is “inactive”.

`Oc1ccc(Nc2nncc3ccccc23)cc1`: the inhibition in assay [1] was determined as 23%. The DOSE entry in the assay on Canis familiaris [4] was “inactive”.

As for `Oc1c(CN2CCCC2)cc(Nc2ccnc3cc(Cl)ccc23)cc1CN1CCCC1`, in assay [1], the inhibition stood at 27%. In the assay on Canis familiaris [6], the DOSE result is “Partially active”.

With `Oc1c(CN2CCCC2)cc(Nc2ccnc3ccccc23)cc1CN1CCCC1`, the inhibition in assay [1] stood at 19%. For the same molecule, the DOSE entry with Canis familiaris [8] is “Partially active”.

Turning to `CN(C)Cc1cc(Nc2nncc3ccccc23)cc(CN(C)C)c1O`, the inhibition in assay [1] stood at 14%. The same molecule showed a Dose in the assay filed under Canis familiaris [3] of 14 mg/kg.

Regarding `Oc1c(CN2CCCC2)cc(Nc2ccc3ccccc3n2)cc1CN1CCCC1`, in assay [1], the inhibition is 50%. Moreover, in the assay listed under Canis familiaris [3], the Dose was 6 mg/kg.

In the case of `Oc1c(CN2CCCC2)cc(Nc2nccc3ccccc23)cc1CN1CCCC1`, the inhibition in assay [1] came to 48%. Moreover, the Dose in the assay listed under Canis familiaris [3] was 1.1 mg/kg.
